Organism: Homo sapiens
Experiment: Selectivity index, ratio of IC50 for recombinant human MAO-A expressed in baculovirus infected BT1-TN-5B1-4 cells to recombinant human MAO-B expressed in baculovirus infected BT1-TN-5B1-4 cells
Details: not given; call rule not given here

SMILES	Ratio IC50
O=C(/C=C(O)/C=C/c1ccc([N+](=O)[O-])cc1)c1ccccc1O	> 37
O=C(/C=C/C=C/c1ccc(Cl)cc1)c1ccccc1O	44
O=C(/C=C/C=C/c1ccccc1)c1cc(F)ccc1O	> 1320
O=C(/C=C/c1ccccc1)c1cc(F)ccc1O	> 150
COc1ccc(/C=C/C=C/C(=O)c2ccccc2O)cc1OC	> 6.8
O=C(/C=C(O)/C=C/c1ccc(O)cc1)c1ccccc1O	57
COc1cc(/C=C/C=C/C(=O)c2c(O)cccc2O)ccc1O	1.5
COc1ccc(/C=C/C=C/C(=O)c2ccccc2O)cc1	> 55
O=C(/C=C/C=C/c1ccc(Cl)cc1)c1cc(Cl)ccc1O	> 68
O=C(/C=C(O)/C=C/c1ccccc1)c1ccccc1O	> 86
COc1cc(/C=C/C=C/C(=O)c2ccccc2O)ccc1O	3.1
COc1cc(/C=C/C=C/C(=O)c2c(O)cccc2OC)ccc1O	2.1
O=C(/C=C(O)/C=C/c1ccccc1)c1cc(F)ccc1O	> 1980
O=C(/C=C/C=C/c1ccccc1)c1cc(Cl)ccc1O	> 1830
O=C(/C=C/C=C/c1ccc(Cl)cc1)c1ccc(O)cc1O	1350
COc1ccc(/C=C/C=C/C(=O)c2cc(F)ccc2O)cc1	> 138
O=C(/C=C/C=C/c1ccc([N+](=O)[O-])cc1)c1cc(Cl)ccc1O	> 93
O=C(/C=C/C=C/c1ccccc1)c1ccccc1O	> 948
Cc1ccc(/C=C/C(O)=C/C(=O)c2ccccc2O)cc1	> 27
COc1ccc(C(=O)/C=C/C=C/c2ccc(Cl)cc2)c(O)c1	> 22200
O=C(/C=C/C=C/c1ccc([N+](=O)[O-])cc1)c1ccccc1O	> 624
COc1ccc(/C=C/C=C/C(=O)c2cc(Cl)ccc2O)cc1	> 653
O=C(/C=C(O)/C=C/c1ccc(O)c(O)c1)c1ccccc1O	0.66
COc1ccc(/C=C/C=C/C(=O)c2c(O)cccc2O)cc1OC	17
COc1cc(/C=C/C(O)=C/C(=O)c2c(O)cccc2OC)ccc1O	2.2

Biological target: T1, Amine oxidase [flavin-containing] B (Homo sapiens, UniProt P27338)
T1 sequence (P27338 whole entry): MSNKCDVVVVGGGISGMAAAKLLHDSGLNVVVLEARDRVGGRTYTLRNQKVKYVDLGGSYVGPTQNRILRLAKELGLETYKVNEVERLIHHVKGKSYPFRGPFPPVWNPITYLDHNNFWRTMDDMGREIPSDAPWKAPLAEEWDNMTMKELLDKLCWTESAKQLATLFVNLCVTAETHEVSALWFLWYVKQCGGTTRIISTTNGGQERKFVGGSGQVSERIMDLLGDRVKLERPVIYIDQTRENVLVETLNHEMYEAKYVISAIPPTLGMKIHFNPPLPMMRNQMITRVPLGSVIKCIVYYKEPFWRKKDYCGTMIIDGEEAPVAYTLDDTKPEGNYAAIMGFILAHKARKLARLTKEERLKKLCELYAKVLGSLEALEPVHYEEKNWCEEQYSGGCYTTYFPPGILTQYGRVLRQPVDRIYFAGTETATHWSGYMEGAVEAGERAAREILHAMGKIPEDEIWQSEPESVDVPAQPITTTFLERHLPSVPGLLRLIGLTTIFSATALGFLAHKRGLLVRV
Experiment: biochemical
Type: cell-based
Details: not given

SMILES	IC50 [µM]
O=C(/C=C(O)/C=C/c1ccc([N+](=O)[O-])cc1)c1ccccc1O	2.67
O=C(/C=C/C=C/c1ccc(Cl)cc1)c1ccccc1O	0.86
O=C(/C=C/C=C/c1ccccc1)c1cc(F)ccc1O	0.0758
O=C(/C=C/c1ccccc1)c1cc(F)ccc1O	0.668
COc1ccc(/C=C/C=C/C(=O)c2ccccc2O)cc1OC	14.6
O=C(/C=C(O)/C=C/c1ccc(O)cc1)c1ccccc1O	0.0265
COc1cc(/C=C/C=C/C(=O)c2c(O)cccc2O)ccc1O	0.969
COc1ccc(/C=C/C=C/C(=O)c2ccccc2O)cc1	1.81
O=C(/C=C/C=C/c1ccc(Cl)cc1)c1cc(Cl)ccc1O	1.46
O=C(/C=C(O)/C=C/c1ccccc1)c1ccccc1O	1.16
COc1cc(/C=C/C=C/C(=O)c2ccccc2O)ccc1O	0.502
COc1cc(/C=C/C=C/C(=O)c2c(O)cccc2OC)ccc1O	0.486
O=C(/C=C(O)/C=C/c1ccccc1)c1cc(F)ccc1O	0.0504
O=C(/C=C/C=C/c1ccccc1)c1cc(Cl)ccc1O	0.0548
O=C(/C=C/C=C/c1ccc(Cl)cc1)c1ccc(O)cc1O	0.0114
COc1ccc(/C=C/C=C/C(=O)c2cc(F)ccc2O)cc1	0.726
O=C(/C=C/C=C/c1ccc([N+](=O)[O-])cc1)c1cc(Cl)ccc1O	1.08
O=C(/C=C/C=C/c1ccccc1)c1ccccc1O	0.106
Cc1ccc(/C=C/C(O)=C/C(=O)c2ccccc2O)cc1	3.77
COc1ccc(C(=O)/C=C/C=C/c2ccc(Cl)cc2)c(O)c1	0.00451
O=C(/C=C/C=C/c1ccc([N+](=O)[O-])cc1)c1ccccc1O	0.16
COc1ccc(/C=C/C=C/C(=O)c2cc(Cl)ccc2O)cc1	0.153
O=C(/C=C(O)/C=C/c1ccc(O)c(O)c1)c1ccccc1O	0.654
COc1ccc(/C=C/C=C/C(=O)c2c(O)cccc2O)cc1OC	1.45
COc1cc(/C=C/C(O)=C/C(=O)c2c(O)cccc2OC)ccc1O	1.68

Biological target: T1, Amine oxidase [flavin-containing] B
Experiment: Inhibition of recombinant human MAO-B expressed in baculovirus infected BT1-TN-5B1-4 cells assessed as inhibition of production of hydrogen peroxide from p-tyramine at 100 uM after 15 mins by Amplex Red assay
Details: 0.25 h

SMILES	inhibition at 100 µM [%]
COc1ccc(/C=C/C(O)=C/C(=O)c2ccccc2O)cc1	40
O=C(/C=C(O)/C=C/c1ccc(Cl)cc1)c1ccccc1O	40

Same assay, conditions: 0.25 h, 100 µM

SMILES	inhibition (INH)
COc1ccc(/C=C/C(O)=C/C(=O)c2ccccc2O)cc1OC	Not Active
O=C(/C=C(O)/C=C/c1ccc(Cl)cc1)c1cc(Cl)ccc1O	Not Active
COc1ccc(/C=C/C(O)=C/C(=O)c2c(O)cccc2OC)cc1OC	Not Active
COc1ccc(/C=C/C=C/C(=O)c2c(O)cccc2OC)cc1OC	Not Active

Biological target: T2, Amine oxidase [flavin-containing] A (Homo sapiens, UniProt P21397)
T2 sequence (P21397 whole entry): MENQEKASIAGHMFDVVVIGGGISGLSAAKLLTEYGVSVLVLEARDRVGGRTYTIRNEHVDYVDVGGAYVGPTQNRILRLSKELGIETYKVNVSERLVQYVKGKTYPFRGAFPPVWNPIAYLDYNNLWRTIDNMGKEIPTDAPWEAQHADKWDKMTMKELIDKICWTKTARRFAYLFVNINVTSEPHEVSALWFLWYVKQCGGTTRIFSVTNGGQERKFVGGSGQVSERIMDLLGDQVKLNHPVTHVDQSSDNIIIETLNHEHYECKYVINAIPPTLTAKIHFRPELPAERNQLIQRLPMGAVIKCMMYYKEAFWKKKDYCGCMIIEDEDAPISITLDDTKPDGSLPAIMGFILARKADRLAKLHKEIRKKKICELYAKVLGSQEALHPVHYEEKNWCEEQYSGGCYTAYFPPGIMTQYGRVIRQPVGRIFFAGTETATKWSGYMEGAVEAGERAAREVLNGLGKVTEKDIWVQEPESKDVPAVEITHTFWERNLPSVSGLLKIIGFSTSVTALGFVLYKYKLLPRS
Experiment: Inhibition of recombinant human MAO-A expressed in baculovirus infected BT1-TN-5B1-4 cells assessed as inhibition of production of hydrogen peroxide from p-tyramine at 100 uM after 15 mins by Amplex Red assay
Details: 0.25 h

SMILES	inhibition at 100 µM [%]
O=C(/C=C/c1ccccc1)c1cc(F)ccc1O	40
COc1ccc(/C=C/C=C/C(=O)c2ccccc2O)cc1OC	40
COc1ccc(/C=C/C=C/C(=O)c2ccccc2O)cc1	40
COc1ccc(/C=C/C(O)=C/C(=O)c2c(O)cccc2OC)cc1OC	40
COc1ccc(/C=C/C=C/C(=O)c2c(O)cccc2OC)cc1OC	40

Same assay, conditions: 0.25 h, 100 µM

SMILES	inhibition (INH)
O=C(/C=C(O)/C=C/c1ccc([N+](=O)[O-])cc1)c1ccccc1O	Not Active
O=C(/C=C/C=C/c1ccccc1)c1cc(F)ccc1O	Not Active
COc1ccc(/C=C/C(O)=C/C(=O)c2ccccc2O)cc1	Not Active
O=C(/C=C/C=C/c1ccc(Cl)cc1)c1cc(Cl)ccc1O	Not Active
O=C(/C=C(O)/C=C/c1ccccc1)c1ccccc1O	Not Active
O=C(/C=C(O)/C=C/c1ccccc1)c1cc(F)ccc1O	Not Active
O=C(/C=C/C=C/c1ccccc1)c1cc(Cl)ccc1O	Not Active
COc1ccc(/C=C/C=C/C(=O)c2cc(F)ccc2O)cc1	Not Active
O=C(/C=C/C=C/c1ccc([N+](=O)[O-])cc1)c1cc(Cl)ccc1O	Not Active
COc1ccc(/C=C/C(O)=C/C(=O)c2ccccc2O)cc1OC	Not Active
O=C(/C=C/C=C/c1ccccc1)c1ccccc1O	Not Active
Cc1ccc(/C=C/C(O)=C/C(=O)c2ccccc2O)cc1	Not Active
COc1ccc(C(=O)/C=C/C=C/c2ccc(Cl)cc2)c(O)c1	Not Active
O=C(/C=C/C=C/c1ccc([N+](=O)[O-])cc1)c1ccccc1O	Not Active
COc1ccc(/C=C/C=C/C(=O)c2cc(Cl)ccc2O)cc1	Not Active
O=C(/C=C(O)/C=C/c1ccc(Cl)cc1)c1cc(Cl)ccc1O	Not Active
O=C(/C=C(O)/C=C/c1ccc(Cl)cc1)c1ccccc1O	Not Active

Biological target: T2, Amine oxidase [flavin-containing] A
Experiment: Inhibition of recombinant human MAO-A expressed in baculovirus infected BT1-TN-5B1-4 cells assessed as inhibition of production of hydrogen peroxide from p-tyramine after 15 mins by Amplex Red assay
Details: not given

SMILES	IC50 [µM]
O=C(/C=C/C=C/c1ccc(Cl)cc1)c1ccccc1O	37.7
O=C(/C=C(O)/C=C/c1ccc(O)cc1)c1ccccc1O	1.52
COc1cc(/C=C/C=C/C(=O)c2c(O)cccc2O)ccc1O	1.43
COc1cc(/C=C/C=C/C(=O)c2ccccc2O)ccc1O	1.56
COc1cc(/C=C/C=C/C(=O)c2c(O)cccc2OC)ccc1O	1.03
O=C(/C=C/C=C/c1ccc(Cl)cc1)c1ccc(O)cc1O	15.4
O=C(/C=C(O)/C=C/c1ccc(O)c(O)c1)c1ccccc1O	0.431
COc1ccc(/C=C/C=C/C(=O)c2c(O)cccc2O)cc1OC	25.2
COc1cc(/C=C/C(O)=C/C(=O)c2c(O)cccc2OC)ccc1O	3.76

Biological target: T1, Amine oxidase [flavin-containing] B
Experiment: Inhibition of recombinant human MAO-B expressed in baculovirus infected BT1-TN-5B1-4 cells assessed as inhibition of production of hydrogen peroxide from p-tyramine at 1 mM after 15 mins by Amplex Red assay
Details: 0.25 h, 1000 µM

SMILES	inhibition (INH)
O=C(NCCN1CCOCC1)c1ccc(Cl)cc1 [MOCLOBEMIDE]	Not Active
